# According to patent US6855353B2, “Method for producing antioxidant and prevention of cancer” (priority 2002, dated 2005):
# Assays:
# [1] = test system: NNK-induced lung tumorigenesis; assay: NNK-induced lung tumorigenesis; format: in vivo, mice; settings: RES by injection 20 mg/kg daily; 10 μmol NNK i.p.; pulmonary adenomas counted after sixteen weeks
# Description: The capacity of tobacco-specific nitrosamine 4-(methylnitrosamino)-1-(3-pyridyl)-1-butanone (NNK) to induce tumor incidence was recognized several years ago. Every group had 20 mice. For treatment group, each mouse was gave RES by injection at dose of 20 mg/kg daily. For control group, each mouse was gave same volume of physiological saline. Three days later, mice were gave 10 μmol NNK (in 0.1 ml saline) by i.p. injection. Sixteen weeks after these treatments the mice were killed and pulmonary adenomas were counted. The statistical significance of bioassay data was determined by student's test.
# [2] = test system: SOD; assay: Effect of RES on super-oxidation during reperfusion of ischemia heart: SOD; set-up: species or system rats
# Description: (§1) H2O2 in the body is cleared by catalase and glutathione peroxidase (GSH-Px) catalysis. In myocardium, catalase activity of GSH-Px was lower.
# (§2) In the present study we examined the effect of RES on super-oxidation during reperfusion of ischemia heart.
# (§3) Male rats (280 to 320 g body weight) of Spague-Dawley strain maintained on a standard diet were used in these experiments. The rats were lightly anesthetized with diethyl ether, the left femoral vein was exposed and heparin (200 IU) was administered intravenously. 1 minute after administration of heparin the heart was excised and placed in ice cool perfusion medium until contraction had ceased. The heart was then mounted on the perfusion apparatus.
# (§4) Langendorff perfusion for an initial 10 min. period, the perfusion was continued as a working preparation for an additional 30 min. The hearts were all electrically paced at between 265 and 275 beats/min during working perfusion.
# (§5) The perfusate was Krebs-Henseleit bicarbonate buffer gassed with 95% oxygen and 5% carbon dioxide. This perfusate contained 11 mM D-glucose during the Langendorff perfusion.
# (§6) Aortic pressure, heart rates, coronary flows and aortic outputs were monitored during perfusion. […] The perfusate of control group contained buffer only. At the end the frozen hears were store in liquid nitrogen until assayed for metabolic intermediates. […]
# [3] = test system: p53 gene in gastric cancer cells; assay: Effect of RES on p53 allelic loss (PCR-SSCP); format: cell-based
# Description: (§7) The gastric cancer cells and normal cells were cultured in RPMI 1640 medium supplement with 10% fetal bovine serum. All the exons of the p^53 gene were amplified by the polymease chain reaction (PCR) using specific oligonucleotide primers. The PCR products were subjected to single-strand conformation polymorphism (SSCP) analysis.
# [4] = test system: GSH-Px; assay: Effect of RES on GSH-Px activity in tissues after 30 days feeding; format: in vivo; settings: 0.2% RES solution as drinking water up to 30 days
# Description: Glutathion peroxidase (GSH-Px) is an important enzyme, which has a high activity in cancer tissues.
# Twenty animals were divided into two groups of ten each and fed with either normal drinking water (control group) or 0.2% of RES solution (experimental group); this defined feeding regimen was continued up to 30 days. At the end of the feeding regimen, the animals were sacrificed, and whole skin, small bowel, liver, and lung were removed and immediately placed in ice-cold 0.1 M phosphate buffer, pH 7.4. Tissues were cleaned properly, minced and homogenized in the same buffer, and a 100,000×g supernatant fraction was prepared as described earlier. GSH-Px and GSH-r activities were measured.
# [5] = test system: c-myc RNA; assay: Inhibition of oncogene expression in ML-1 cells (northern blot): c-myc; format: cell-based, Human
# Description: (§8) Human myeloblastic leukemic cell (ML-1) had been described previously. Cells were maintained in suspension culture in RPMI 1640 medium supplemented with 7.5% heat-inactivated FBS. Cells growth and viability were assayed by hemocytometer using trypan blue dye exclusion.
# (§9) RNA was isolated by the CsCl gradient modification. RNA pellets were washed twice by reprecipitation in ethanol and quantitated by absorbency at […]. RNA analyzed by electrophoresis of 15 μg of RNA through 1.2% agarose formaldehyde gels followed by northern blot transfer to nitrocellulose.
# (§10) Single-standard uniformly labeled DNA probes were prepared. Probe of c-myc was a 1.7 Kb cla-Eco RI restriction fragment containing the 3′exon region of human c-myc and probe of c-myb was 1.0 Kb myb-specific Bam HI fragment. Probes for n-ras contained DNA fragments using a modification of the PCR technique. Probes for myb, myc and n-ras were isolated by electrolution. The isolated fragments were labeled to high specific activity with [α^32P]-dCTP (3000 ci/mmol). Prehybridization of the filter was performed. The hybridization mixer contained 50,000 cpm of probe. The probes were hybridized at 58° C. in 15 mM NaCl, […] sodium citrate for 3 hours. After hybridization, they were exposed to XAR-5 film. Oncogene expression was quantitated by densitometer scanning of the autoradiography.
# [6] = test system: c-myb RNA; assay: Inhibition of oncogene expression in ML-1 cells (northern blot): c-myb; format: cell-based, Human
# Description: as §8, §9, §10
# [7] = test system: Aminopyrine demethylase; assay: Effect of RES on hepatic microsomal monooxygenases: aminopyrine demethylase; format: in vivo; settings: rat liver microsomes
# Description: (§11) In the present study, the effect of RES on the activities of hepatic microsomal monooxygenases was examined.
# (§12) Microsomal preparations—the microsomes used were prepared from rat's liver. The liver was thoroughly perfused in situ with more than 200 ml of 0.9% NaCl solution. The liver was excised, and homogenized with 4 volumes of isotonic (1.15%) KCl solution in a Potter glass homogenizer. The homogenate was centrifuged at 12,000×g for 25 minutes in a refrigerated centrifuge, and the precipitate was discarded. The microsomes were sedimented by centrifugation at 78,000×g for 90 minutes in a Hitachi model 40P preparative ultracentrifuge. The firmly packed pellet of microsomes was resuspended in isotonic KCl solution with the Potter homogenizer and again centrifuged as above. The washed microsomes were finally suspended in isotonic KCl, usually at a concentration of 10 mg of protein per ml. The resultant microsomal suspensions were stored at 4° C. and used within 2 to 3 days. In these preparations isotonic KCl was employed, instead of the more usual 0.25 M sucrose, so as to minimize the adsorption of hemoglobin on microsomes.
# (§13) Cytochrome P-450, NADPH-cytochrome creductase, aminoyrine demethylase and benzpyrene hydroxylase determined as previously described. Other methods are as same as above section.
# [8] = test system: Lipoperoxides; assay: Effect of RES on peroxidation (hepatic lipoperoxide content, CCl4-induced hepatic damage); format: in vivo
# Description: The experiments were performed as previously described. Hepatic lipoperoxide content was determined as described by Uchiyama.
# In the present study, the effect of RES on lipoperoxides was examined.
# It is known that the pathogenesis of CCl4—induced hepatic damage involved reactive oxidant species increasing from the metabolism. The liver injure caused by CCl4 is due to the formation of a reactive toxic metabolite by the hepatic cytochrome P-450 system.
# [9] = test system: Cytochrome P-450; assay: Effect of RES on hepatic microsomal monooxygenases: cytochrome P-450; format: in vivo; settings: rat liver microsomes
# Description: as §11, §12, §13
# [10] = test system: bovine aortic smooth muscle cell modified LDL; assay: Effect of RES on lower density lipoprotein oxidation (MDA); format: cell-based; settings: LDL + 100 μg RES/ml, 37° C., 24 h; x ± s
# [11] = test system: 17p in gastric cancer cells; assay: Effect of RES on 17p allelic loss (PCR-SSCP); format: cell-based
# Description: as §7
# [12] = test system: GSH-Px; assay: Effect of RES on super-oxidation during reperfusion of ischemia heart: GSH-Px; set-up: species or system rats
# Description: as §1, §2, §3, §4, §5, §6
# [13] = test system: NADPH-cytochrome Creductase; assay: Effect of RES on hepatic microsomal monooxygenases: NADPH-cytochrome c reductase; format: in vivo; settings: rat liver microsomes
# Description: as §11, §12, §13
# [14] = test system: Benzpyrene hydroxylase; assay: Effect of RES on hepatic microsomal monooxygenases: benzpyrene hydroxylase; format: in vivo; settings: rat liver microsomes
# Description: as §11, §12, §13
# [15] = test system: n-ras RNA; assay: Inhibition of oncogene expression in ML-1 cells (northern blot): n-ras; format: cell-based, Human
# Description: as §8, §9, §10
# [16] = test system: mouse epidermis; assay: Rate of [3H] thymidine incorporation in normal and TPA-stimulated mouse epidermis; format: in vivo
# Description: It is known that tetradecanoyphorbol-13-acetate (TPA) is strong tumor promoter and TPA can remarkable increase [^3H] thymidine incorporation in mouse epidermis and then to induce Epidermis cancer.
# Mice were treated with TPA and the rate of [^3H] thymidine incorporation was determined 20 hours later. Male mice (7-9 weeks old) used for experiments. Only mice showing no hair regrowth following shaving were used. Animals were injected intraperitoneally (i.p.) with TPA or […]. After 20 hours, mice were injected i.p. with 60 μCi of [^3H] thymidine (2 Ci/mmol) 20 minutes before sacrifice. Epidermal scrapings were prepared. Homogenized in distilled water at 4° C., and the macromolecules precipitated with 0.4 N trichloracetic acid (TCA). Following 6 washes with 0.2 N TCA at 4° C. and 2 washes with absolute ethanol at room temperature, the nucleic acids were hydrolyzed with 0.5 N TCA at 90° C. for 5 minutes. The hydrolysates (0.2 ml aliquots) were counted in a scintillation counter and assayed for DNA. Each value is the mean±range for three separately treated mice. Each counted aliquot (0.2 ml) contained approximately 10 μg of DNA.
# [17] = ischemia heart, perfusate with 0.05 mg of RES/ml
# [18] = pre-perfusion with 4×10^−6 g of RES/ml
# [19] = gastric cancer cells treated by RES
# [20] = gastric cancer cells treated by RES vs no drug
smiles,measurement,setting,value
"Oc1ccc(/C=C/c2cc(O)cc(O)c2)cc1 [RES, resveratol]",Tumor incidence,[1],28.5 ± 3.0%
same,SOD activity,[2]; [17],10.5 ± 1.2 μg/protein
same,SOD activity versus control group,[2]; [18],significantly higher
same,Frequency of p53 allelic loss,[3]; [19],12%
same,Inhibition T/C (p53 allelic loss),[3]; [20],36%
same,"GSH-Px activity, Liver",[4]; liver,34 ± 50 n mol NADPH oxidized/mg protein/min
same,"GSH-Px activity, Lung",[4]; lung,22 ± 3.5 n mol NADPH oxidized/mg protein/min
same,"GSH-Px activity, Skin",[4]; skin,260 ± 30 n mol NADPH oxidized/mg protein/min
same,Inhibition (%) c-myc RNA,[5],30.1 ± 4.2%
same,Inhibition (%) c-myb RNA,[6],25.6 ± 3.5%
same,Aminopyrine demethylase,[7],170.0 ± 18 nmol HCHO/mg protein
same,"Lipoperoxides T/C, 1h",[8]; 1h,87%
same,"Lipoperoxides, 1 h","[8]; 1 h, CCl4-induced hepatic damage",0.65 ± 0.07 mmol MDA/g liver protein
same,"Lipoperoxides T/C, 3h",[8]; 3h,72%
same,"Lipoperoxides, 3 h","[8]; 3 h, CCl4-induced hepatic damage",0.62 ± 0.069 mmol MDA/g liver protein
same,"Lipoperoxides T/C, 6h",[8]; 6h,55%
same,"Lipoperoxides, 6 h","[8]; 6 h, CCl4-induced hepatic damage",0.60 ± 0.70 mmol MDA/g liver protein
same,"Lipoperoxides T/C, 12h",[8]; 12h,40%
same,"Lipoperoxides, 12 h","[8]; 12 h, CCl4-induced hepatic damage",0.59 ± 0.60 mmol MDA/g liver protein
same,"Lipoperoxides T/C, 24h",[8]; 24h,22%
same,"Lipoperoxides, 24 h","[8]; 24 h, CCl4-induced hepatic damage",0.58 ± 0.58 mmol MDA/g liver protein
same,Cytochrome P-450,[9],2.65 ± 0.35 nmol/mg protein
same,MDA,[10],2.75 ± 0.29 nmol/mg protein
same,Frequency of 17p allelic loss,[11]; [19],18.8%
same,Inhibition T/C (17p allelic loss),[11]; [20],49%
same,GSH-Px,[12]; [17],18.9 ± 2.0 μ/g.w
same,GSH-Px activity versus control group,[12]; [18],significantly higher
same,NADPH-cytochrome Creductase,[13],198.5 ± 20 nmol/mg protein
same,Benzpyrene hydroxylase,[14],48.9 ± 5.8 nmol/mg protein
same,Inhibition (%) n-ras RNA,[15],35.7 ± 3.8%
same,"Specific activity, [3H] thymidine incorporation, TPA","[16]; TPA-stimulated mouse epidermis, 20 hours after TPA",33.0 ± 4.5 cpm/μg DNA
same,"Specific activity, [3H] thymidine incorporation, Normal",[16]; normal mouse epidermis,32.2 ± 4.0 cpm/μg DNA
